Data from patent publication US20180010132A1, “INHIBITION OF PRMT5 TO TREAT MTAP-DEFICIENCY-RELATED DISEASES” (NOVARTIS AG, priority 2014, published 2018).

Key:
PRMT5 = PRMT5 (Homo sapiens, UniProt O14744); details: methylating the substrate E2-F-1; cited from earlier work
PRMT5/MEP50 complex = PRMT5/MEP50 complex (Homo sapiens, UniProt O14744); test: LC/MS based biochemical histone methyltransferase assay
Description: Top: Schematic representation of multi-allele dual-selection assay with P2A or STOP insertion cassettes and crystal violet staining of cells. […] Profiling of the inhibitory activity (IC50) of adenosine and MTA across a panel of histone methyltransferases (HMTs) in an LC/MS based biochemical assay. MTA and adenosine display single digit μM activity against the PRMT5/MEP50 complex (red) but have no activity (IC50>100 μM) across all other HMTs tested. […] MIAPaCa2 cells stably expressing inducible shPRMT5-2 were transduced with pRetro empty vector control or with MTAP cDNA and proliferation assessed by confluence measurements using Incucyte. […] FIGS. 3 K and L show in vitro proliferation assay of PK1 MTAP isogenic cell lines generated from a non-targeting control sgRNA FIG. 3 K, PK1 CTRL; or with a sgRNA targeting MTAP 1, PK1 MTAP KO and stably expressing Dox-inducible PRMT5 (shPRMT5-2) with and without treatment with doxycycline (+/−Dox) over time (hours) as assessed by incucyte (n=24 per treatment condition). […] FIGS. 3 M and N show focus formation of PK1 (FIG. 3M), wild type (WT) and (FIG. 3N), MTAP knockout (MTAP KO) cells treated with DMSO or MTA at concentrations as indicated.

Chain of PRMT5/MEP50 complex (O14744 whole entry): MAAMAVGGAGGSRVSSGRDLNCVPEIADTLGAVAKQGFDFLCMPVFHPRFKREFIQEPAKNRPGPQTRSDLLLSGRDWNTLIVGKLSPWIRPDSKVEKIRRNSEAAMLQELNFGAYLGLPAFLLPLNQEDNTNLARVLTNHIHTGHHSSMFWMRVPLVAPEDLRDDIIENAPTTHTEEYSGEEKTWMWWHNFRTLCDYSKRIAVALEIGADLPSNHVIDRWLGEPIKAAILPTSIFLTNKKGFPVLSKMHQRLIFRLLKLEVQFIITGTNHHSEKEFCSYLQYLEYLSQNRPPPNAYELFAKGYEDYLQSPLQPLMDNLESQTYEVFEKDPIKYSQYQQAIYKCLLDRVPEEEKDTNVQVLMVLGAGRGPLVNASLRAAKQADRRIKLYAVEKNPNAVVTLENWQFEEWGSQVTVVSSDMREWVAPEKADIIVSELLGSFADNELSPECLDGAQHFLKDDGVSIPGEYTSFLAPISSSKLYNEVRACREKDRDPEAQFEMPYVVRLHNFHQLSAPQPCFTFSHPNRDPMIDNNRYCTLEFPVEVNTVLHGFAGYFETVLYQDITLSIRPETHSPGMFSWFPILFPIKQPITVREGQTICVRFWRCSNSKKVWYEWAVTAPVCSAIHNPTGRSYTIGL
Chain of PRMT5/MEP50 complex (Q9BQA1 whole entry partner): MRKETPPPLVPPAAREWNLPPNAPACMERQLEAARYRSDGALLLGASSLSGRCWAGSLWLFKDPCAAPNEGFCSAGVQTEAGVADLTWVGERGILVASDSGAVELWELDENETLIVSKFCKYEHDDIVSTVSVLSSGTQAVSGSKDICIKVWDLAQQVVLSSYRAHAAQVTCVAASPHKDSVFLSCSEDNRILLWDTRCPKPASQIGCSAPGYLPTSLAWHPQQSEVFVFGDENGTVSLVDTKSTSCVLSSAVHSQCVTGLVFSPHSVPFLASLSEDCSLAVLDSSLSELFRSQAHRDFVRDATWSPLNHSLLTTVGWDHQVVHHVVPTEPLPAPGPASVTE
Chain of PRMT5 (O14744 whole entry): as the sequence (O14744 whole entry) above
Chain of PRMT5 (Q9BQA1 whole entry partner): as the sequence (Q9BQA1 whole entry partner) above

inhibitory activity (IC50) (PRMT5/MEP50 complex)	Compound	PRMT5 activity (PRMT5)
	Nc1ncnc2c1ncn2[C@@H]1O[C@H](C[C@@H](N)CC[C@H](N)C(=O)O)C(O)C1O (stereo in doubt) [Sinefungin, 5′-Deoxy-5′-(1,4-diamino-4-carboxybutyl)adenosine]	inhibits
single digit	CSC[C@H]1O[C@@H](n2cnc3c(N)ncnc32)[C@H](O)[C@@H]1O [MTA, methyl-thioadenosine]	
single digit	Nc1ncnc2c1ncn2[C@@H]1O[C@H](CO)[C@@H](O)[C@H]1O [adenosine]	
